What was measured:
[1] = Iron (II) chelating properties, ferrozine assay; assay type: biochemical; details: 100 μM, EDTA=100%, FIG. 2
Procedure: In an embodiment, AntiOxCINs iron (II) chelating properties were evaluated by the ferrozine assay using ethylenediaminetetracetic acid (EDTA) as reference.
In an embodiment, AntiOxCINs iron chelating properties were evaluated by the spectrophotometric ferrozine method performed in a multiplate reader (Powerwave XS Microplate Reader) of Bio-Tech instruments.
In an embodiment, the AntiOxCINs iron chelating properties were evaluated as follows: in each well, a solution of the test compound (100 μM) and ammonium iron (II) sulphate in ammonium acetate (20 μM) were added, incubated for 10 min and the absorbance was read at 562 nm. Then, a freshly prepared solution of ferrozine (5 mM) was added to each well (96 μM final concentration). After a new incubation at 37° C. for 10 min period, the absorbance of [Fe(ferrozine)3]^2+ complex was measured at 562 nm. Blank wells were run using DMSO instead of the test compounds. EDTA was used as a reference. All compounds were tested at a final concentration of 100 μM. The absorbance of the first reading was subtracted to the final values to abolish any absorbance due to the test compounds. Data are means±SEM of three independent experiments and are expressed as % of Fe(II) chelation (EDTA=100%).

[2] = tested on: rat liver mitochondria (RLM) membranes; assay: RLM lipid peroxidation, TBARS assay (FeSO4/H2O2/ascorbate); assay type: biochemical; details: 5 μM pre-incubation, FIG. 4A
Procedure: In an embodiment, and as an example, AntiOxCINs antioxidant performance, on the protection of lipid peroxidation of RLM membranes was determined. Two different oxidative stressor agents, FeSO4/H2O2/ascorbate and ADP/FeSO4, and two end-points, TBARS production and oxygen-consumption, respectively, have been used. MitoQ was used as reference (FIGS. 4 and 5).
In an embodiment, the evaluation of AntiOxCINs functional mitochondrial toxicity profile was performed in rat liver mitochondria (RLM). RLM were prepared by tissue homogenization followed by differential centrifugations in ice-cold buffer containing 250 mM sucrose, 10 mM HEPES (pH 7.4), 1 mM EGTA, and 0.1% fat-free bovine serum albumin. […] The protein concentration was determined by the biuret assay using BSA as a standard.
In an embodiment, the effect of AntiOxCINs on RLM lipid peroxidation was measured by thiobarbituric acid reactive species (TBARS) assay as follows: RLM (2 mg protein/ml) were incubated in 0.8 mL medium containing 100 mM KCl, 10 mM Tris-HCl and pH 7.6, at 37° C., supplemented with 5 mM glutamate/2.5 mM malate as substrate. […] The fluorescence of aliquots (250 μL) of the organic layer was analyzed in a plate reader (λEx=515 nm; λEm=553 nm) for TBARS. […] Data are means±SEM of three independent experiments and are expressed as % of control (control=100%).

[3] = tested on: rat liver mitochondria (RLM); assay: Mitochondrial respiration of isolated RLM (Clark-type oxygen electrode); assay type: biochemical
Procedure: (§1) In an embodiment, and as an example, AntiOxCINs and MitoQ toxicity effects on the mitochondrial bioenergetics, namely on RLM ΔΨ and mitochondrial respiration parameters, were measured. The […] represents the main component of the electrochemical gradient generated by mitochondrial respiration and accounts for more than 90% of the total available energy. For mitochondrial respiration assays, glutamate/malate (for complex I) and succinate (for complex II) were used as substrates. In addition, the mitochondrial oxidative phosphorylation coupling index, known as respiratory control ratio (RCR, state 3/state 4 respiration) and ADP/O index (the coupling between ATP synthesis and oxygen consumption) were also calculated. AntiOxCINs and MitoQ were tested at antioxidant-relevant concentrations, with 10 μM being the highest concentration.
(§2) In an embodiment, the evaluation of AntiOxCINs functional mitochondrial toxicity profile was performed in rat liver mitochondria (RLM). […] The protein concentration was determined by the biuret assay using BSA as a standard.
In an embodiment, the evaluation of AntiOxCINs effect on mitochondrial respiration was performed as follows: the respiration of isolated RLM was evaluated polarographically with a Clark-type oxygen electrode, connected to a suitable recorder in a 1 mL thermostated water-jacketed chamber with magnetic stirring, at 37° C.^1. […] Increasing concentrations of AntiOxCINs (2.5-10 μM) were added to the reaction medium containing respiratory substrates glutamate/malate (10 mM and 5 mM respectively) or succinate (5 mM) and RLM (1 mg) and allowed to incubate for a 5 min period prior to the assay. State 2 was considered as the respiration during the 5 min incubation time with AntiOxCINs. […] State 4 was determined after ADP phosphorylation finished. Subsequent addition of oligomycin (2 μg/ml) inhibited ATP-synthase and originated the oligomycin-inhibition respiration state. Finally, 1 μM FCCP was added to induce uncoupled respiration.

[4] = tested on: rat liver mitochondria (RLM); assay: Mitochondrial transmembrane electric potential (ΔΨ) of RLM, safranine fluorescence; assay type: biochemical
Procedure: as §1, §2
Then, 1 μM FCCP was added at the end of all experiments to depolarize mitochondria. ΔΨ was calculated using a calibration curve obtained when RLM were incubated in a K^+-free reaction medium containing 200 mM sucrose, 1 mM NaH2PO4, 10 mM Tris (pH 7.4) and 10 μM EGTA, supplemented with 0.4 μg valinomicin. […] “Repolarization” corresponded to the recovery of membrane potential after the complete phosphorylation of ADP added. Lag phase reflected the time required to phosphorylate the added ADP. […] Data are means±SEM of five independent experiments.

[5] = tested on: mitochondrial permeability transition pore (mPTP) of RLM; assay: Mitochondrial permeability transition pore (mPTP) opening, mitochondrial swelling; assay type: biochemical, rat; details: 2.5, 5 and 10 μM, pre-incubated 5 min before calcium, FIG. 7A-C
Procedure: In an embodiment, the AntiOxCINs effects on mitochondrial permeability transition pore (mPTP) opening were evaluated. In general, less lipophilic AntiOxCINs had no effect on mPTP opening for all tested concentrations (FIG. 7A-C).
In an embodiment, the evaluation of AntiOxCINs functional mitochondrial toxicity profile was performed in rat liver mitochondria (RLM). RLM were prepared by tissue homogenization followed by differential centrifugations in ice-cold buffer containing 250 mM sucrose, 10 mM HEPES (pH 7.4), 1 mM EGTA, and 0.1% fat-free bovine serum albumin. After obtaining a crude mitochondrial preparation, pellets were washed twice and resuspended in washing buffer (250 mM sucrose and 10 mM HEPES, pH 7.4). The protein concentration was determined by the biuret assay using BSA as a standard.
In an embodiment, the effect of AntiOxCINs on mitochondrial permeability transition pore opening were measured as follows: mitochondrial swelling was estimated by measuring the alterations of light scattered from a mitochondrial suspension, as monitored spectrophotometrically at 540 nm. Increasing concentrations of AntiOxCINs (2.5-10 μM) were added to the reaction medium (200 mM sucrose, 1 mM KH2PO4, 10 mM Tris (pH 7.4), 5 mM succinate and 10 μM EGTA supplemented with 1.5 μM rotenone), in the presence of RLM (1 mg), and allowed to incubate for a 5 min period before the assay. The experiments were initiated by the addition of a suitable concentration of Ca^2+ (15-50 μM), titrated every day. […] The reaction was stirred continuously and the temperature maintained at 37° C. Data are means±SEM of three independent experiments and are expressed as Aabsorbance at 540 nm.

SMILES: O=C(O)CN(CCN(CC(=O)O)CC(=O)O)CC(=O)O [EDTA, ethylenediaminetetracetic acid, reference compound]
- iron (II) chelation [1]: able to chelate all the iron in solution

SMILES: COC1=C(OC)C(=O)C(CCCCCCCCCC[P+](c2ccccc2)(c2ccccc2)c2ccccc2)=C(C)C1=O.CS(=O)(=O)[O-] [MitoQ, [10-(4,5-dimethoxy-2-methyl-3,6-dioxo-1,4-cyclohexadien-1-yl)decyl]triphenylphosphonium methanesulfonate, reference compound]
- iron (II) chelation [1]: not shared by MitoQ
- prevention of mitochondria lipid peroxidation (TBARS levels) [2]: effectively inhibited lipid peroxidation
- toxicity on the mitochondrial bioenergetic apparatus of RLM ([3]; 2.5 μM, FIG. 6A and Table 2): caused toxicity
- effect on respiratory states ([3]; concentrations up to 5 μM, glutamate/malate, FIG. 6A): increase on state 2, state 4 and oligomycin-inhibited respiration and a decrease on state 3 and FCCP-uncoupled respiration
- ADP/O ([3]; glutamate/malate, 2.5 μM): 2.2 ± 0.1
- RCR (respiratory control ratio, state 3/state 4) ([3]; glutamate/malate, 2.5 μM): 4.2 ± 0.6
- ADP/O ([3]; glutamate/malate, 5 μM): 1.9 ± 0.1
- RCR (respiratory control ratio, state 3/state 4) ([3]; glutamate/malate, 5 μM): 2.7 ± 0.3
- ADP/O ([3]; glutamate/malate, 10 μM): 2.0 ± 0.2
- RCR (respiratory control ratio, state 3/state 4) ([3]; glutamate/malate, 10 μM): 1.3 ± 0.1
- coupling of RLM ([3]; succinate, highest concentration tested, FIG. 6A): completely uncoupled
- ADP/O ([3]; succinate, 2.5 μM): 1.3 ± 0.1
- RCR (respiratory control ratio, state 3/state 4) ([3]; succinate, 2.5 μM): 2.6 ± 0.2
- ADP/O ([3]; succinate, 5 μM): 1.3 ± 0.1
- RCR (respiratory control ratio, state 3/state 4) ([3]; succinate, 5 μM): 2.4 ± 0.2
- repolarization after ADP-induced depolarization ([4]; 10 μM): no repolarization occurred
- ADP-induced depolarization (ΔΨ in - mV) ([4]; glutamate/malate, 2.5 μM): 173.0 ± 9.3 mV
- Lag Phase ([4]; glutamate/malate, 2.5 μM): 86.5 ± 5.6 s
- Maximum potential (ΔΨ in - mV) ([4]; glutamate/malate, 2.5 μM): 195.7 ± 10.8 mV
- Repolarization Potential (ΔΨ in - mV) ([4]; glutamate/malate, 2.5 μM): 191.1 ± 11.7 mV
- ADP-induced depolarization (ΔΨ in - mV) ([4]; glutamate/malate, 5 μM): 173.5 ± 8.9^ mV
- Lag Phase ([4]; glutamate/malate, 5 μM): 84.5 ± 7.1 s
- Maximum potential (ΔΨ in - mV) ([4]; glutamate/malate, 5 μM): 188.3 ± 10.6 mV
- Repolarization Potential (ΔΨ in - mV) ([4]; glutamate/malate, 5 μM): 185.0 ± 9.4 mV
- Maximum potential (ΔΨ in - mV) ([4]; glutamate/malate, 10 μM): 113.9 ± 10.2 mV
- ADP-induced depolarization (ΔΨ in - mV) ([4]; succinate, 2.5 μM): 162.1 ± 6.0 mV
- Lag Phase ([4]; succinate, 2.5 μM): 104.8 ± 9.9 s
- Maximum potential (ΔΨ in - mV) ([4]; succinate, 2.5 μM): 181.6 ± 8.3 mV
- Repolarization Potential (ΔΨ in - mV) ([4]; succinate, 2.5 μM): 182.7 ± 9.1 mV
- ADP-induced depolarization (ΔΨ in - mV) ([4]; succinate, 5 μM): 157.0 ± 6.4^ mV
- Lag Phase ([4]; succinate, 5 μM): 92.6 ± 19.4 s
- Maximum potential (ΔΨ in - mV) ([4]; succinate, 5 μM): 170.2 ± 8.1 mV
- Repolarization Potential (ΔΨ in - mV) ([4]; succinate, 5 μM): 170.8 ± 8.7 mV
- Maximum potential (ΔΨ in - mV) ([4]; succinate, 10 μM): 108.9 ± 3.8 mV
- effect on calcium-dependent mPTP opening [5]: no effect in mPTP induction

Source: patent US10913757B2, “Hydroxycinnamic derivatives, methods and uses thereof” (UNIVERSIDADE DO PORTO, priority 2016, dated 2021)
